{"source": "patent US20140031427A1", "about": "“COMBINATIONS OF ADAPALENE AND BENZOYL PEROXIDE FOR TREATING ACNE LESIONS” (GALDERMA RESEARCH & DEVELOPMENT, priority 2006, published 2014)", "key": {"TPA-induced ear edema": {"test_system": "TPA-induced ear edema", "test": "Anti-inflammatory evaluation in TPA-induced ear oedema model", "type": "in vivo, Balb/c mice", "details": "T+6 hours", "description": "The study was carried out with 45 (5 par groups) female 9 weeks aged Balb/c ByJIc mice.\nThe Edema was induced by a single application of 20 μl of TPA dissolved in acetone at 0.01%.\nThe treatment was administrated by single topical application of tested compounds dissolved in TPA at 0.01% (groups 3, 4, 5, 6 and 7) and dissolved in TPA 0.01%+BPO (groups 8, 9 and 10).\nThe treatments activity was measured by inflammation evaluation with ear thickness at T+6 hours."}, "[1]": {"test": "Pooled analysis of three adapalene-BPO clinical studies: safety (adverse events, local facial tolerability)", "type": "in vivo, human", "details": "12 weeks, safety population; adapalene 0.1%, BPO 2.5%", "description": "(§1) Three multicenter, double-blind, randomized and controlled studies on the efficacy and safety of adapalene-BPO were conducted in 157 centers in the U.S, Puerto Rico, Canada, Germany, Poland and Hungary.^19-21 Patients were randomized to receive adapalene 0.1%-BPO 2.5% (Epiduo®, Galderma Laboratories), adapalene 0.1%, BPO 2.5% or vehicle once daily in the evening for 12 weeks. Adapalene and BPO used in the studies were formulated in the same gel vehicle as adapalene-BPO, instead of as the respective commercial products (Differin® and Benzac®, Galderma Laboratories). Efficacy and safety assessments were performed at each study visit, occurred at baseline, weeks 1, 2, 4, 8 and 12.\nSafety of the treatments was evaluated through reporting of adverse events (AE) and assessments of local facial tolerability. At each study visit, the investigators rated signs of erythema, scaling, dryness and stinging/burning on a scale from 0 (none) to 3 (severe).\n(§2) Data from the three studies were pooled and analyzed. Efficacy was evaluated in the intent-to-treat (ITT) population, which included all patients who were randomized and dispensed study medicine. Safety was assessed in the safety population, which included all patients who were randomized and treated at least once."}, "acne lesions": {"test_system": "acne lesions", "test": "Clinical study of topical gel combining adapalene + BPO vs monads and vehicle, 517 patients, 12 weeks", "type": "in vivo, human", "details": "for reduction in lesions: all lesions, week 12, rounded values in text; for Degree of success / Progress of the lesions (as median absolute numbers): Number of inflammatory lesions / Progress of the lesions (as median absolute numbers): Number of non-inflammatory lesions / Progress of the lesions (as median absolute numbers): Total number of lesions / Progress of the lesions (median percentages): Number of inflammatory lesions / Progress of the lesions (median percentages): Number of non-inflammatory lesions / Progress of the lesions (median percentages): Total number of lesions: week 12, ITT, adapalene 0.1%, BPO 2.5%; for Degree of success: % patients clear or almost clear, gels once a day", "description": "A clinical study for confirmation of efficacy was performed for a topical gel combining adapalene+benzoyl peroxide (BPO). This gel has the following formulation (expressed as % weight/total weight): The clinical study was a multi-center, randomized, double-blind study in parallel groups, to evaluate the tolerance and the efficacy of the above formulation, in comparison with its own individual active substances placed at the same doses in gels of the same formula as that of the fixed combination (individual formulae referred to as “monads”) and in comparison with the gel vehicle (placebo formula): adapalene gel (0.1%), BPO gel (2.5%) and vehicle gel. All the treatments were applied once a day for 12 weeks, to 517 patients suffering from acne. The main efficacy criteria were: the degree of success, defined as the percentage of patients considered as being “clear”, i.e., the patient has no more acne lesions (neither comedones nor inflammatory lesions), reflecting an improvement in the patient's clinical condition, or “almost clear” on the evaluation scale; the reduction of the percentage of inflammatory and non-inflammatory lesions after 12 weeks of treatment."}, "[2]": {"details": "even in the presence of light; cited from earlier work"}, "acne vulgaris lesions": {"test_system": "acne vulgaris lesions", "test": "Pooled analysis of three adapalene-BPO clinical studies (3855 patients): efficacy and synergy", "type": "in vivo, human", "details": "adapalene 0.1%, BPO 2.5%; for net effect (active minus vehicle), total lesions: week 1; for success rate: week 12, % patients with IGA clear or almost clear", "description": "as §1\nEligible patients were 12 years or older with 20 to 50 inflammatory lesions (IL), 30 to 100 non-inflammatory lesions (NIL), no cysts and no more than 1 nodule on the face. […] Lesion counts were performed on the face only excluding the nose. Specified washout periods were required for patients taking certain topical and systemic treatments. Patients were excluded if they received systemic acne treatment or had dermatological conditions requiring interfering treatments. Women were excluded if they were pregnant, nursing, or planning a pregnancy. Men were excluded if they had facial hair that would interfere with assessments.\nIGA was evaluated on a scale from 0 (clear: residual hyperpigmentation and erythema may be present) to 4 (severe: entire face is involved, covered with comedones, numerous papules and pustules, and few nodules and cysts).\nas §2\nEfficacy was evaluated by the Cochran-Mantel-Haenzsel (CMH) test, using general association for success rate and row mean differences by relative to identified distribution (RIDIT) transformed scores for percent lesion change. All tests were 2-sided.\nSynergy was defined as the efficacy of combination (adapalene-BPO) greater than the sum of efficacy of individual components (adapalene alone and BPO alone). We took into account the vehicle effect by deducting it from the effect of treatments:^25\nNet effect of active agent=effect of active agent−effect of vehicle Synergy=Net effect of adapalene-BPO−(Net effect of adapalene+Net effect of BPO)>0\nThe degree of synergy was evaluated based on the contribution of synergy to efficacy (net effect) of adapalene-BPO:\nDegree of synergy(%)=(synergy/Net effect of adapalene-BPO)×100"}, "[3]": {"details": "Adapalene at 0.1% alone in TPA 0.01%"}, "[4]": {"details": "BPO at 2.5% (alone or with adapalene at 0.1%) in TPA 0.01%"}, "[5]": {"details": "BPO at 5% (alone or with adapalene at 0.1%) in TPA 0.01%"}, "[6]": {"details": "BPO at 10% (alone or with adapalene at 0.1%) in TPA 0.01%"}}, "note": "Values joined by “and” are separate entries in the source; they are usually repeats but may differ in a detail not shown here. Equal values may be shown once."}
{"smiles": "COc1ccc(-c2ccc3cc(C(=O)O)ccc3c2)cc1C12CC3CC(CC(C3)C1)C2", "note": "[Adapalene, 6-[3-(1-Adamantyl)-4-methoxyphenyl]-2-naphthoic acid]", "values": [{"measurement": "Ear edema Mean", "setting": "TPA-induced ear edema; [3]", "result": 23.40}, {"measurement": "Inhibition vs TPA (%)", "setting": "TPA-induced ear edema; [3]", "result": "13% and 12.7%"}, {"measurement": "percentage of patients who experienced treatment-related AEs", "setting": "[1]", "result": 15.3, "unit": "%"}, {"measurement": "reduction in lesions", "setting": "acne lesions", "result": 35, "unit": "%"}, {"measurement": "Degree of success", "setting": "acne lesions", "result": 15.5, "unit": "%"}, {"measurement": "Degree of success", "setting": "acne lesions; listed as adapalene", "result": 16, "unit": "%"}, {"measurement": "Progress of the lesions (as median absolute numbers): Number of inflammatory lesions", "setting": "acne lesions", "result": "−13.0"}, {"measurement": "Progress of the lesions (as median absolute numbers): Number of non-inflammatory lesions", "setting": "acne lesions", "result": "−17.0"}, {"measurement": "Progress of the lesions (as median absolute numbers): Total number of lesions", "setting": "acne lesions", "result": "−29.0"}, {"measurement": "Progress of the lesions (median percentages): Number of inflammatory lesions", "setting": "acne lesions", "result": "−45.7", "unit": "%"}, {"measurement": "Progress of the lesions (median percentages): Number of non-inflammatory lesions", "setting": "acne lesions", "result": "−33.3", "unit": "%"}, {"measurement": "Progress of the lesions (median percentages): Total number of lesions", "setting": "acne lesions", "result": "−35.4", "unit": "%"}, {"measurement": "stability when combined with BPO", "setting": "[2]", "result": "remains stable"}, {"measurement": "net effect (active minus vehicle), total lesions", "setting": "acne vulgaris lesions", "result": 1.4, "unit": "%"}, {"measurement": "success rate", "setting": "acne vulgaris lesions", "result": 20.0, "unit": "%"}]}
{"smiles": "O=C(OOC(=O)c1ccccc1)c1ccccc1", "note": "[BPO, benzoyl peroxide]", "values": [{"measurement": "Ear edema Mean", "setting": "TPA-induced ear edema; [4]", "result": 22.40}, {"measurement": "Inhibition vs TPA (%)", "setting": "TPA-induced ear edema; [4]", "result": "16% and 16.4%"}, {"measurement": "Ear edema Mean", "setting": "TPA-induced ear edema; [5]", "result": 20.40}, {"measurement": "Inhibition vs TPA (%)", "setting": "TPA-induced ear edema; [5]", "result": "24% and 23.9%"}, {"measurement": "Ear edema Mean", "setting": "TPA-induced ear edema; [6]", "result": 16.20}, {"measurement": "Inhibition vs TPA (%)", "setting": "TPA-induced ear edema; [6]", "result": "40% and 39.6%"}, {"measurement": "percentage of patients who experienced treatment-related AEs", "setting": "[1]", "result": 8.5, "unit": "%"}, {"measurement": "reduction in lesions", "setting": "acne lesions", "result": 36, "unit": "%"}, {"measurement": "Degree of success", "setting": "acne lesions", "result": "15% and 15.4%"}, {"measurement": "Progress of the lesions (as median absolute numbers): Number of inflammatory lesions", "setting": "acne lesions", "result": "−13.0"}, {"measurement": "Progress of the lesions (as median absolute numbers): Number of non-inflammatory lesions", "setting": "acne lesions", "result": "−16.0"}, {"measurement": "Progress of the lesions (as median absolute numbers): Total number of lesions", "setting": "acne lesions", "result": "−27"}, {"measurement": "Progress of the lesions (median percentages): Number of inflammatory lesions", "setting": "acne lesions", "result": "−43.6", "unit": "%"}, {"measurement": "Progress of the lesions (median percentages): Number of non-inflammatory lesions", "setting": "acne lesions", "result": "−36.4", "unit": "%"}, {"measurement": "Progress of the lesions (median percentages): Total number of lesions", "setting": "acne lesions", "result": "−35.6", "unit": "%"}, {"measurement": "net effect (active minus vehicle), total lesions", "setting": "acne vulgaris lesions", "result": 2.4, "unit": "%"}, {"measurement": "success rate", "setting": "acne vulgaris lesions", "result": 23.1, "unit": "%"}]}
